# Assay results reported in PubChem BioAssay AID1963425 (Molecular Pharmacology Branch, DTP, NCI, 2024).
# Several values for one entry are separate records, joined by “and”; a condition that tells them apart may be missing. Identical values can stand only once.
# System: 323965-272-R-J2-PDC complex spheroid growth, % test/control
# Test: Anticancer human tumor 323965-272-R-J2-PDC patient-derived pancreatic carcinoma cell line growth inhibition [Asc]
# Details: for viability, T/C: stronger effect = lower value
# Outline: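 Complex solid-tumor spheroids incorporating human endothelial and mesenchymal stem cells received single agents or combinations over half-log dilution ranges anchored to clinical Cmax.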
# 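Note: compound exposure lasted 7 days starting three days after spheroid seeding.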
# 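Throughout, for viability, T/C: 100% = DMSO vehicle control wells with viability set relative to vehicle.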
compound,measurement,setting,value
Cc1nc(N2CCC3(CC2)COC(C)C3N)c(CO)nc1Sc1ccnc(N)c1Cl (stereo unspecified) + CCN1C(C(=O)NC23CCC(C(=O)O)(CC2)CC3)C(c2cccc(Cl)c2F)C2(C(=O)Nc3cc(Cl)ccc32)C12CCCCC2,IC50,"curve of first compound, second compound 0.00949 µM",1560 nM
same,IC50,"curve of first compound, second compound 0.03 µM",> 3000 nM
same,IC50,"curve of first compound, second compound 0.0949 µM",> 3000 nM
same,IC50,"curve of first compound, second compound 0.3 µM",1700 nM
same,IC50,"curve of first compound, second compound 0.949 µM",1640 nM
same,IC50,"curve of first compound, second compound 3 µM",929 nM
same,"viability, T/C","second compound 0.00949 µM, first compound 0.00949 µM",107%
same,"viability, T/C","second compound 0.00949 µM, first compound 0.03 µM",89%
same,"viability, T/C","second compound 0.00949 µM, first compound 0.0949 µM",85.4%
same,"viability, T/C","second compound 0.00949 µM, first compound 0.3 µM",62.7%
same,"viability, T/C","second compound 0.00949 µM, first compound 0.949 µM",57.3%
same,"viability, T/C","second compound 0.00949 µM, first compound 3 µM",42.9%
same,"viability, T/C","second compound 0.03 µM, first compound 0.00949 µM",104%
same,"viability, T/C","second compound 0.03 µM, first compound 0.03 µM",91.8%
same,"viability, T/C","second compound 0.03 µM, first compound 0.0949 µM",80.4%
same,"viability, T/C","second compound 0.03 µM, first compound 0.3 µM",67.8%
same,"viability, T/C","second compound 0.03 µM, first compound 0.949 µM",59%
same,"viability, T/C","second compound 0.03 µM, first compound 3 µM",50.4%
same,"viability, T/C","second compound 0.0949 µM, first compound 0.00949 µM",109%
same,"viability, T/C","second compound 0.0949 µM, first compound 0.03 µM",84.9%
same,"viability, T/C","second compound 0.0949 µM, first compound 0.0949 µM",86.1%
same,"viability, T/C","second compound 0.0949 µM, first compound 0.3 µM",65.3%
same,"viability, T/C","second compound 0.0949 µM, first compound 0.949 µM",61.7%
same,"viability, T/C","second compound 0.0949 µM, first compound 3 µM",51.2%
same,"viability, T/C","second compound 0.3 µM, first compound 0.00949 µM",102%
same,"viability, T/C","second compound 0.3 µM, first compound 0.03 µM",86.3%
same,"viability, T/C","second compound 0.3 µM, first compound 0.0949 µM",82.7%
same,"viability, T/C","second compound 0.3 µM, first compound 0.3 µM",68.6%
same,"viability, T/C","second compound 0.3 µM, first compound 0.949 µM",54.2%
same,"viability, T/C","second compound 0.3 µM, first compound 3 µM",44.6%
same,"viability, T/C","second compound 0.949 µM, first compound 0.00949 µM",105%
same,"viability, T/C","second compound 0.949 µM, first compound 0.03 µM",95.8%
same,"viability, T/C","second compound 0.949 µM, first compound 0.0949 µM",88.3%
same,"viability, T/C","second compound 0.949 µM, first compound 0.3 µM",63.6%
same,"viability, T/C","second compound 0.949 µM, first compound 0.949 µM",57.8%
same,"viability, T/C","second compound 0.949 µM, first compound 3 µM",44.2%
same,"viability, T/C","second compound 3 µM, first compound 0.00949 µM",91.2%
same,"viability, T/C","second compound 3 µM, first compound 0.03 µM",83.3%
same,"viability, T/C","second compound 3 µM, first compound 0.0949 µM",71.7%
same,"viability, T/C","second compound 3 µM, first compound 0.3 µM",60%
same,"viability, T/C","second compound 3 µM, first compound 0.949 µM",53.6%
same,"viability, T/C","second compound 3 µM, first compound 3 µM",35.4%
O=C(c1cc(Cc2n[nH]c(=O)c3ccccc23)ccc1F)N1CCN(C(=O)C2CC2)CC1 + Cc1c(S(C)(=O)=O)c(-c2cc(F)cc(N3CCN(c4ccc(NS(=O)(=O)c5ccc(NC(CCN6CCC(C(=O)OCCCP(=O)(O)O)CC6)CSc6ccccc6)c(S(=O)(=O)C(F)(F)F)c5)cc4)CC3)c2)c(-c2ccc(Cl)cc2)n1C(C)C,IC50,"curve of first compound, second compound 0.0316 µM",> 10000 nM
same,IC50,"curve of first compound, second compound 0.1 µM",> 10000 nM
same,IC50,"curve of first compound, second compound 0.316 µM",> 10000 nM
same,IC50,"curve of first compound, second compound 1 µM",> 10000 nM
same,IC50,"curve of first compound, second compound 3.16 µM",> 10000 nM
same,IC50,"curve of first compound, second compound 10 µM",> 10000 nM
same,"viability, T/C","second compound 0.0316 µM, first compound 0.0316 µM",87.5%
same,"viability, T/C","second compound 0.0316 µM, first compound 0.1 µM",92.7%
same,"viability, T/C","second compound 0.0316 µM, first compound 0.316 µM",95.7%
same,"viability, T/C","second compound 0.0316 µM, first compound 1 µM",98.9%
same,"viability, T/C","second compound 0.0316 µM, first compound 3.16 µM",98.3%
same,"viability, T/C","second compound 0.0316 µM, first compound 10 µM",89%
same,"viability, T/C","second compound 0.1 µM, first compound 0.0316 µM",103%
same,"viability, T/C","second compound 0.1 µM, first compound 0.1 µM",93%
same,"viability, T/C","second compound 0.1 µM, first compound 0.316 µM",98.1%
same,"viability, T/C","second compound 0.1 µM, first compound 1 µM",91.2%
same,"viability, T/C","second compound 0.1 µM, first compound 3.16 µM",95%
same,"viability, T/C","second compound 0.1 µM, first compound 10 µM",88.2%
same,"viability, T/C","second compound 0.316 µM, first compound 0.0316 µM",92.4%
same,"viability, T/C","second compound 0.316 µM, first compound 0.1 µM",90.5%
same,"viability, T/C","second compound 0.316 µM, first compound 0.316 µM",92.8%
same,"viability, T/C","second compound 0.316 µM, first compound 1 µM",87.7%
same,"viability, T/C","second compound 0.316 µM, first compound 3.16 µM",91.6%
same,"viability, T/C","second compound 0.316 µM, first compound 10 µM",74.7%
same,"viability, T/C","second compound 1 µM, first compound 0.0316 µM",85.6%
same,"viability, T/C","second compound 1 µM, first compound 0.1 µM",79.3%
same,"viability, T/C","second compound 1 µM, first compound 0.316 µM",83.8%
same,"viability, T/C","second compound 1 µM, first compound 1 µM",84.2%
same,"viability, T/C","second compound 1 µM, first compound 3.16 µM",80.8%
same,"viability, T/C","second compound 1 µM, first compound 10 µM",72.2%
same,"viability, T/C","second compound 3.16 µM, first compound 0.0316 µM",85.9%
same,"viability, T/C","second compound 3.16 µM, first compound 0.1 µM",76.5%
same,"viability, T/C","second compound 3.16 µM, first compound 0.316 µM",78.6%
same,"viability, T/C","second compound 3.16 µM, first compound 1 µM",74.2%
same,"viability, T/C","second compound 3.16 µM, first compound 3.16 µM",78.4%
same,"viability, T/C","second compound 3.16 µM, first compound 10 µM",60.2%
same,"viability, T/C","second compound 10 µM, first compound 0.0316 µM",72.4%
same,"viability, T/C","second compound 10 µM, first compound 0.1 µM",75.2%
same,"viability, T/C","second compound 10 µM, first compound 0.316 µM",64.9%
same,"viability, T/C","second compound 10 µM, first compound 1 µM",71.1%
same,"viability, T/C","second compound 10 µM, first compound 3.16 µM",81.1%
same,"viability, T/C","second compound 10 µM, first compound 10 µM",51.8%
Cn1ncnc1[C@H]1c2n[nH]c(=O)c3cc(F)cc(c23)N[C@@H]1c1ccc(F)cc1,"viability, T/C",compound 0.000316 µM,103% and 109% and 106%
same,"viability, T/C",compound 0.001 µM,96.5% and 103% and 99.3%
same,"viability, T/C",compound 0.00316 µM,103% and 104% and 99.2%
same,"viability, T/C",compound 0.01 µM,96.4% (2×) and 120%
same,"viability, T/C",compound 0.0316 µM,103% and 95.3% and 106%
same,"viability, T/C",compound 0.1 µM,89.7% and 95.6% and 94.9%
same,IC50,curve of compound,> 100 nM
